Assay results reported in patent US11384118B2, “CAR-T cells targeting glioma stem cells for the treatment of glioblastoma multiforme” (H. Lee Moffitt Cancer Center and Research Institute, Inc., priority 2018, dated 2022).
“Also recorded” adds a separate entry of the source. Blank lines part the entries; values can stand above or below the substance they belong to. Ends that are not written are not given here.

Columns and labels:
[1] = system: patient-derived glioma stem cells; assay: IFNG release assay following overnight coculture of CAR-T cells with GSC; format: cell-based, human; conditions: GSC vs DGC of same patient, H2110 and media negative controls
Excerpt: Capitalizing on the unique ability of peptides EYA and VAV to bind to GSC, a series of chimeric antigen receptors (CARs) were designed that display a peptide derived from the EYA and VAV sequences, arranged in tandem, at the N-terminus of the CAR molecule. The role of the tandem peptides in the N-terminus of the CAR is to detect GSC, which in turn will activate the T cell through the CD3ζ domain in the C-terminus. Most CARs utilize antibody-derived molecules (Abate-Daga D, L et al. Hum Gene Ther. 2014 25(12):1003-12), or natural ligands (Brown C E, et al. N Engl J Med. 2016 375(26):2561-9; Brown C E, et al. Clin Cancer Res. 2012 18(8):2199-209) to receptors expressed by target cells to perform this function. Seven CAR constructs were generated based on combinations of peptides EYA and VAV (VAV-EYA and EYA-VAV), and of VAV plus five additional peptides (termed 1-VAV, 2-VAV, 3-VAV, 4-VAV, and 5-VAV) identified in the biopanning assays (FIG. 7). CAR cDNA was cloned into a retroviral expression vector used for clinical CAR-T cell manufacture, called pMSGV1, and the resulting constructs were used to transduce human primary T cells. The expression of the CAR molecules was first analyzed by Western blot against the CD3ζ chain of the CAR. Six of the seven CAR designs were expressed in transduced cells (FIG. 8). […]

[2] = system: glioblastoma tissue; assay: Fluorescent peptide staining of glioblastoma and normal brain tissue; format: binding, human; conditions: peptide conjugated with fluorescein
Experimental: Patient brain tissues were obtained from Cleveland Clinic Tissue Bank. Cells (GSC and DGC) or frozen-sectioned tissues (glioblastoma and normal brain) were fixed in 4% paraformaldehyde and permeabilized with 0.1% Triton X-100 and stained using following primary antibodies: EYA1 (Aviva System Biology, ARP32434_P050), SOX2 (R&D system, MAB2018), vWF (Abcam, ab68548), CD31 (Santa Cruz Biotechnology, sc-1506), MYC (Cell signaling, 5605), and SIX1 (Abcam, ab84329) primary antibodies were incubated overnight at 4° C., followed species appropriate secondary antibodies with incubation for 3.5 hours at room temperature. Nuclei were stained with DAPI, and slides were then mounted with FluorSave (Calbiochem, 345789). Images were taken using a Leica DM4000 uplight microscopy. For DAB staining, tissues were incubated with rabbit anti-EYA1 or anti-c-Myc antibody overnight at 4° C., followed goat anti-rabbit biotinylated secondary antibody with incubation for 3.5 hours at room temperature. After incubation with antibodies, tissues were stained using VECTASTAIN Elite ABC HRP Kit (VECTOR LABORATORIES, PK-6100) and DAB Peroxidase Substrate Kit (VECTOR LABORATORIES, SK-4100) according to the manufacturer's instructions. After counterstaining with 50% hematoxylin, images were taken. […]

[3] = system: GSCs; assay: Binding of Cy5.5-conjugated peptide to GSCs / GSC tumor sphere; design: species or system human; conditions: peptide conjugated with Cyanine 5.5
Experimental: Cells were dissociated to singles with TrypLE Express (Thermo Fisher Scientific) and recovered in Neurobasal medium at 37° C. for 1-2 hours. Before the incubation with primary antibodies, cells were blocked with 2% BSA in PBS for 30-50 minutes. Primary antibodies were treated at 4° C. for 40-90 minutes. Anti-EYA1 antibody (Aviva System Biology, ARP32434_P050), anti-IgG control antibody, 5(6)-carboxyfluorescein-conjugated peptide AWEFYFP, and cyanine 5.5-conjugated peptide AWEFYFP were used as primary antibodies. After washing with 1% BSA in PBS, cells were incubated with Alexa Fluor 488-conjugated goat anti-rabbit IgG antibody (Invitrogen, A11008) at 4° C. for 40 minutes. Unstained- or secondary antibody treated-cells without a primary antibody were used as negative controls. Labeled cells were analyzed by flow cytometry.

[4] = system: glioblastoma xenografted into the subcutaneous flank; assay: In vivo imaging after tail vein injection, subcutaneous flank xenograft; design: species or system NSG mice
Excerpt: (§1) Cyanine 5.5-conjugated peptide AWEFYFP (SEQ ID NO:2) and control peptide GGGSGGG (SEQ ID NO:33) were synthesized by LifeTein, LCC. (Hillsborough, N.J., USA). GSCs were implanted into subcutaneously (5×10^5 cells) or intracranially (5×10^4 cells) into 4 weeks old NSG mice under a Cleveland Clinic Foundation Institutional Animal Care and Use Committee approved protocol. After 4 weeks, cyanine 5.5-conjugated peptides were delivered into the mice via intravenous injection. Signals from injected peptides were monitored by fluorescence channel of IVIS Spectrum CT In Vivo Imaging System (PerkinElmer, USA) for 72 hours.

[5] = system: intracranial glioma patient-derived xenografts; assay: In vivo imaging after tail vein injection, intracranial xenograft; design: species or system NSG mice
Excerpt: as §1

Substance: 5-VAV: CAR with peptide #5 linked to peptide VAV (binding agent SEQ ID NO:27) (NWYWVYPGGGGSGGGGSGGGGSSSQPFWSGSTSGSGKPGSGEGSTKG) [Peptide 5-VAV]
- IFNG release / recognition of GSC [1]: specific recognition of GSC (but not differentiated glioma cells, DGC, derived from the same patient)

Substance: AWEFYFP (also: carboxyfluorescein conjugate) [GBM-IC2, used fluorescein-conjugated for staining]
- binding to glioblastoma tissue relative to normal brain [2]: specifically bound to glioblastoma tissue, relative to normal brain; also recorded: preferential binding to glioblastoma tissue
- binding to SOX2 expressing cells (co-staining with GSC marker SOX2) ([2]; double staining with anti-SOX2): greater binding of GBM-IC2 to SOX2 expressing cells; also recorded: co-staining with SOX2

- binding to GSCs ([3]; listed as GBM-IC2 conjugated with Cy5.5): preferential binding to GSC tumor sphere
Substance: GBM-IC2-Cy5.5: GBM-IC2 peptide conjugated with Cyanine 5.5, a near infrared marker (AWEFYFP; also: Cy5.5 conjugate)
- binding to GSCs [3]: binding to GSCs in a concentration-dependent manner
- earliest time of tumor binding after injection ([4]; flank xenograft): 20 min
- tumor targeting by imaging, flank xenograft ([4]; in vivo and ex vivo): high specificity of binding to the tumor; also recorded: specific targeting of the tumor four hours after injection in a dose dependent manner
- histological analysis of peptide signal in intracranial tumor ([5]; ex vivo brain sections): positive fluorescent signal in the intracranial tumor samples
- tumor targeting by imaging, intracranial xenograft ([5]; tail vein injection, imaging 20 minutes post-injection, in vivo and ex vivo): strong specificity of binding of tumor in the intracranial cavity; also recorded: specific targeting of the intracranial tumor
- penetration of the BBB ([5]; tail vein injection, intracranial xenograft): penetrate the BBB
